Counter-ions that a name gives are not always drawn.

The target of the assay is T1, human recombinant P2X7 receptors (Homo sapiens, UniProt Q99572).
T1 construct: expressed in transfected cells
T1 sequence (Q99572 1-595): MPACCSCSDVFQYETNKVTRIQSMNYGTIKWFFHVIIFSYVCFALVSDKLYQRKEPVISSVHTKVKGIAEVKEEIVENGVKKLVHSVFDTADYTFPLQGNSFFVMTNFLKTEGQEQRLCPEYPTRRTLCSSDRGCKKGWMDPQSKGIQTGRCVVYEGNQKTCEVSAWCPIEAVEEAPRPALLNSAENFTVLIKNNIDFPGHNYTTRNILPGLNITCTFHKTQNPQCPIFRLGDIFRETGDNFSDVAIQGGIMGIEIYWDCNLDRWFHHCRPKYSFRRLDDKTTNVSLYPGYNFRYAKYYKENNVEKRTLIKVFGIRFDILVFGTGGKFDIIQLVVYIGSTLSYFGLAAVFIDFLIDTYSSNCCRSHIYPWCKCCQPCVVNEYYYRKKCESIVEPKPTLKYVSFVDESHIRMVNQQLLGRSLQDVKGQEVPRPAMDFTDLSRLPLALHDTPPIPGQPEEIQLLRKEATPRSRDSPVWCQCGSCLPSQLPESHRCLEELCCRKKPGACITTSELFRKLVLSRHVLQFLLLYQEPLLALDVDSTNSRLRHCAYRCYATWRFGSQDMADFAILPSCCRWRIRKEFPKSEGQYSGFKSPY
The assay can be described thus: Ethidium Accumulation Assay 1. The format is cell-based. Particulars: HEK293 cells stably expressing human recombinant P2X7; 1 mM ATP; ethidium 100 μM; read-out: Assay 1 (antagonist pIC50 for blocking ATP responses, ethidium accumulation) (converted). As for the experimental part:
Studies were performed using NaCl assay buffer of the following composition: 140 mM NaCl, 10 mM HEPES [4-(2-hydroxyethyl)-1-piperazine-1-ethanesulfonic acid], 5 mM N-methyl-D-glucamine, 5.6 mM KCl, 10 mM D-glucose, 0.5 mM CaCl2 (pH 7.4).
Human Embryonic Kidney (HEK) 293 cells, stably expressing human recombinant P2X7 receptors, were grown in poly-D-lysine pretreated 96 well plates for 18-24 hours. […] The cells were washed twice with 350 μl of the assay buffer, before addition of 50 μl of the assay buffer containing the putative P2X7 receptor antagonist compound. (A small amount of dimethyl sulfoxide, for initially dissolving the compound, is optionally used and present in this […] test compound sample.) The cells were then incubated at room temperature (19-21° C.) for 30 min before addition of ATP and ethidium (100 μM final assay concentration). The ATP concentration was chosen to be close to the EC80 for the receptor type and was 1 mM for studies on the human P2X7 receptor. Incubations were continued for 8 or 16 min and were terminated by addition of 25 μl of 1.3M sucrose containing 4 mM of the P2X7 receptor antagonist Reactive Black 5 (Aldrich). […] Antagonist pIC50 values for blocking ATP responses were determined using iterative curve fitting techniques.
Take `O=C(c1ccc(Cl)cc1Cl)N1CCn2cc(C(F)(F)F)nc2C1` [Example 3, 7-[(2,4-Dichlorophenyl)carbonyl]-2-(trifluoromethyl)-5,6,7,8-tetrahydroimidazo[1,2-a]pyrazine]: the IC50 was under 1000 nM.
Then `O=C(c1cccc(C(F)(F)F)c1Cl)N1CCn2c(-c3ccccc3)cnc2C1` [Example 4, 7-{[2-chloro-3-(trifluoromethyl)phenyl]carbonyl}-3-phenyl-5,6,7,8-tetrahydroimidazo[1,2-a]pyrazine hydrochloride], with under 10 nM.
For the compound `O=C(c1ccc(Cl)cc1Cl)N1CCn2c(-c3ccccc3)cnc2C1` [Example 5, 7-[(2,4-dichlorophenyl)carbonyl]-3-phenyl-5,6,7,8-tetrahydroimidazo[1,2-a]pyrazine hydrochloride], the IC50 is under 100 nM.
Then `CCc1cn2c(n1)CN(C(=O)c1cccc(C(F)(F)F)c1Cl)CC2` [Example 6, 7-{[2-chloro-3-(trifluoromethyl)phenyl]carbonyl}-2-ethyl-5,6,7,8-tetrahydroimidazo[1,2-a]pyrazine], with under 100 nM.
Then `CCc1cn2c(n1)CN(C(=O)c1ccc(Cl)cc1Cl)CC2` [Example 7, 7-[(2,4-dichlorophenyl)carbonyl]-2-ethyl-5,6,7,8-tetrahydroimidazo[1,2-a]pyrazine], with under 1000 nM; and `O=C(c1ccccc1Cl)N1CCn2c(-c3ccccc3)cnc2C1` [Example 8, 7-[(2-chlorophenyl)carbonyl]-3-phenyl-5,6,7,8-tetrahydroimidazo[1,2-a]pyrazine hydrochloride], with under 100 nM.
Then `O=C(c1cccc(Cl)c1Cl)N1CCn2c(-c3ccccc3)cnc2C1` [Example 9, 7-[(2,3-Dichlorophenyl)carbonyl]-3-phenyl-5,6,7,8-tetrahydroimidazo[1,2-a]pyrazine hydrochloride], with under 10 nM; and `O=C(c1ccc(F)cc1Cl)N1CCn2c(-c3ccccc3)cnc2C1` [Example 10, 7-[(2-chloro-4-fluorophenyl)carbonyl]-3-phenyl-5,6,7,8-tetrahydroimidazo[1,2-a]pyrazine hydrochloride], with under 100 nM; and `Cc1cn2c(n1)CN(C(=O)c1cccc(C(F)(F)F)c1Cl)CC2` [Example 11, 7-{[2-chloro-3-(trifluoromethyl)phenyl]carbonyl}-2-methyl-5,6,7,8-tetrahydroimidazo[1,2-a]pyrazine], with under 501 nM.
As for `Cc1cn2c(n1)CN(C(=O)c1cccc(Cl)c1Cl)CC2` [Example 12, 7-[(2,3-dichlorophenyl)carbonyl]-2-methyl-5,6,7,8-tetrahydroimidazo[1,2-a]pyrazine], the IC50 was under 501 nM.
Then `CC(C)(C)c1cn2c(n1)CN(C(=O)c1cccc(C(F)(F)F)c1Cl)CC2` [Example 13, 7-{[2-chloro-3-(trifluoromethyl)phenyl]carbonyl}-2-(1,1-dimethylethyl)-5,6,7,8-tetrahydroimidazo[1,2-a]pyrazine hydrochloride], with under 1000 nM; and `O=C(c1cccc(C(F)(F)F)c1Cl)N1CCn2cc(-c3ccccc3)nc2C1` [Example 14, 7-{[2-chloro-3-(trifluoromethyl)phenyl]carbonyl}-2-phenyl-5,6,7,8-tetrahydroimidazo[1,2-a]pyrazine hydrochloride], with under 501 nM.
Then `O=C(c1cccc(Cl)c1Cl)N1CCn2cc(-c3ccccc3)nc2C1` [Example 15, 7-[(2,3-dichlorophenyl)carbonyl]-2-phenyl-5,6,7,8-tetrahydroimidazo[1,2-a]pyrazine hydrochloride], with under 1000 nM.
Then `O=C(c1cccc(C(F)(F)F)c1Cl)N1CCn2c(-c3ccccn3)cnc2C1` [Example 16, a hydrochloride (n•HCl) salt of 7-{[2-chloro-3-(trifluoromethyl)phenyl]carbonyl}-3-(2-pyridinyl)-5,6,7,8-tetrahydroimidazo[1,2-a]pyrazine], with under 10 nM; and `O=C(c1c(Cl)cc(Cl)cc1Cl)N1CCn2c(-c3ccccc3)cnc2C1` [Example 17, 3-Phenyl-7-[(2,4,6-trichlorophenyl)carbonyl]-5,6,7,8-tetrahydroimidazo[1,2-a]pyrazine hydrochloride], with under 100 nM; and `O=C(c1cccc(C(F)(F)F)c1Cl)N1CCn2c(Br)cnc2C1` [Example 18, 3-Bromo-7-{[2-chloro-3-(trifluoromethyl)phenyl]carbonyl}-5,6,7,8-tetrahydroimidazo[1,2-a]pyrazine hydrochloride], with under 10 nM.
In the case of `O=C(c1cccc(C(F)(F)F)c1Cl)N1CCn2c(nc(C(F)(F)F)c2Br)C1` [Example 19, 3-Bromo-7-{[2-chloro-3-(trifluoromethyl)phenyl]carbonyl}-2-(trifluoromethyl)-5,6,7,8-tetrahydroimidazo[1,2-a]pyrazine], the IC50 is under 10 nM.
Then `O=C(c1cccc(C(F)(F)F)c1Cl)N1CCn2c(nc(I)c2I)C1` [Example 20, 7-{[2-chloro-3-(trifluoromethyl)phenyl]carbonyl}-2,3-diiodo-5,6,7,8-tetrahydroimidazo[1,2-a]pyrazine], with under 10 nM.
Then `O=C(c1cccc(C(F)(F)F)c1Cl)N1CCn2c(I)cnc2C1` [Example 21, 7-{[2-chloro-3-(trifluoromethyl)phenyl]carbonyl}-3-iodo-5,6,7,8-tetrahydroimidazo[1,2-a]pyrazine], with under 10 nM; and `O=C(c1cccc(C(F)(F)F)c1Cl)N1CCn2c(-c3ccc(F)cc3)cnc2C1` [Example 22, 7-{[2-Chloro-3-(trifluoromethyl)phenyl]carbonyl}-3-(4-fluorophenyl)-5,6,7,8-tetrahydroimidazo[1,2-a]pyrazine hydrochloride], with under 100 nM.
Then `O=C(c1cccc(C(F)(F)F)c1Cl)N1CCn2c(-c3cccnc3)cnc2C1` [Example 23, a hydrochloride salt (n•HCl) of 7-{[2-chloro-3-(trifluoromethyl)phenyl]carbonyl}-3-(3-pyridinyl)-5,6,7,8-tetrahydroimidazo[1,2-a]pyrazine], with under 10 nM; and `O=C(c1cccc(C(F)(F)F)c1Cl)N1CCn2c(-c3cccc(C(F)(F)F)c3Cl)cnc2C1` [Example 24, 3-[2-chloro-3-(trifluoromethyl)phenyl]-7-{[2-chloro-3-(trifluoromethyl)phenyl]carbonyl}-5,6,7,8-tetrahydroimidazo[1,2-a]pyrazine hydrochloride], with under 1000 nM; and `O=C(c1cccc(C(F)(F)F)c1Cl)N1CCn2c(-c3ccc(Cl)cc3)cnc2C1` [Example 25, 3-(4-chlorophenyl)-7-{[2-chloro-3-(trifluoromethyl)phenyl]carbonyl}-5,6,7,8-tetrahydroimidazo[1,2-a]pyrazine hydrochloride], with under 501 nM.
As to `O=C(c1cccc(C(F)(F)F)c1Cl)N1CCn2c(nc(C(F)(F)F)c2-c2ccccc2)C1` [Example 26, 7-{[2-Chloro-3-(trifluoromethyl)phenyl]carbonyl}-3-phenyl-2-(trifluoromethyl)-5,6,7,8-tetrahydroimidazo[1,2-a]pyrazine], the IC50 is under 100 nM.
Then `Cc1ccccc1-c1cnc2n1CCN(C(=O)c1cccc(C(F)(F)F)c1Cl)C2` [Example 28, 7-{[2-Chloro-3-(trifluoromethyl)phenyl]carbonyl}-3-(2-methylphenyl)-5,6,7,8-tetrahydroimidazo[1,2-a]pyrazine hydrochloride], with under 100 nM; and `O=C(c1ccc(Cl)cc1Cl)N1CCn2c(nc(Cl)c2Cl)C1` [Example 29, 2,3-dichloro-7-[(2,4-dichlorophenyl)carbonyl]-5,6,7,8-tetrahydroimidazo[1,2-a]pyrazine], with under 100 nM; and `O=C(c1ccc(F)cc1Cl)N1CCn2c(Br)cnc2C1` [Example 30, 3-Bromo-7-[(2-chloro-4-fluorophenyl)carbonyl]-5,6,7,8-tetrahydroimidazo[1,2-a]pyrazine], with under 501 nM.
Then `O=C(c1cccc(C(F)(F)F)c1Cl)N1CCn2c(-c3ccc(F)cn3)cnc2C1` [Example 31, 7-{[2-Chloro-3-(trifluoromethyl)phenyl]carbonyl}-3-(5-fluoro-2-pyridinyl)-5,6,7,8-tetrahydroimidazo[1,2-a]pyrazine], with under 10 nM; and `O=C(c1ccc(F)cc1Cl)N1CCn2c(nc(C(F)(F)F)c2Br)C1` [Example 32, 3-Bromo-7-[(2-chloro-4-fluorophenyl)carbonyl]-2-(trifluoromethyl)-5,6,7,8-tetrahydroimidazo[1,2-a]pyrazine], with under 100 nM.

The values above are taken from US8513248B2, “5,6,7,8-tetrahydroimidazo[1,2-A]pyrazine derivatives as P2X7 modulators” (Glaxo Group Limited, priority 2009, dated 2013).
